Source: US11147272B2, “Pyridone compounds and agricultural and horticultural fungicides comprising the same as active ingredients” (MITSUI CHEMICALS AGRO, INC., priority 2017, dated 2021)

What was measured:
[1] = tested on: Blumeria graminis f. sp. hordei; test: Test Example D: Powdery mildew on barley; details: for Test D control value class: class of control value
Plasmopara viticola = test: Test Example G: Downy mildew on vine; details: for Test G control value: 7 to 10 days after inoculation; for Test G control value class: Downy mildew on vine (Neomuscat), 2.5 ml/pot, assessed 7 to 10 days after inoculation
Phytophthora infestans = test: whole plant or invertebrate; type: in vivo; details: for Test F control value class: class of control value
[2] = tested on: Colletotrichum orbiculare; test: Test Example H: Anthracnose on cucumber; details: for Test H control value: 6 to 10 days after inoculation; for Test H control value class: Anthracnose on cucumber (Sagami Hanjiro), 2.5 ml/pot, assessed 6 to 10 days after inoculation
Botrytis cinerea = test: Test Example B: Gray mold on tomato; details: for Test B control value class: class of control value
Alternaia brassicicola = test: Test Example C: Alternaria sooty spot on cabbage; type: in vivo; details: for Test C control value class: class of control value
Text: Seeds of a test plant (cabbage variety: Shikidori) were planted and cultivated until the cotyledons extended.
<Control Value> Control value=100{1−(n/3)}

Magnaporthe grisea = test: whole plant or invertebrate; type: in vivo; details: for Test A control value class: class of control value
Puccinia recondita = test: Test Example E: Brown rust on wheat; type: in vivo; details: for Test E control value class: class of control value
[3] = 250 ppm drug solution sprayed on test plant
[4] = 250 ppm drug solution sprayed (2.5 ml/pot), grape Neomuscat
[5] = 250 ppm drug solution sprayed (2.5 ml/pot), cucumber Sagami Hanjiro
[6] = Powdery mildew on barley, control value class
[7] = Downy mildew on vine, 250 ppm spray
[8] = Late blight on tomato, control value class
[9] = Anthracnose on cucumber, 250 ppm spray
[10] = Gray mold on tomato, control value class
[11] = Alternaria sooty spot on cabbage, control value class
[12] = Blast on rice, control value class
[13] = Brown rust on wheat, control value class
[14] = Alternaria sooty spot on cabbage

Structure (SMILES) | Test D control value [1, 6] | Test G control value (Plasmopara viticola; [7]) | Test F control value (Phytophthora infestans; [8]) | Test H control value [2, 9] | Test B control value (Botrytis cinerea; [10]) | Test C control value (Alternaia brassicicola; [11]) | Test A control value (Magnaporthe grisea; [12]) | Test E control value (Puccinia recondita; [13]) | Test D control value class ([1]; Powdery mildew on barley) | Test G control value class (Plasmopara viticola; 250 ppm spray) | Test F control value class (Phytophthora infestans; Late blight on tomato) | Test H control value class ([2]; 250 ppm spray) | Test B control value class (Botrytis cinerea; Gray mold on tomato) | Test C control value class (Alternaia brassicicola; [14]) | Test A control value class (Magnaporthe grisea; Blast on rice) | Test E control value class (Puccinia recondita; Brown rust on wheat) | also measured
CCOC(C)(c1cc(Br)c(=O)n(CC)c1-c1c(F)cc(OC)cc1F)C(C)C (centres unmarked) [compound 468] |  |  |  |  |  |  |  |  |  |  |  |  |  |  |  |  | Test D control value [1, 3]: H (more than 50% control value); Test G control value (Plasmopara viticola; [4]): H (more than 50% control value); Test F control value (Phytophthora infestans; [3]): H (more than 50% control value); Test H control value [2, 5]: H (more than 50% control value); Test B control value (Botrytis cinerea; [3]): H (more than 50% control value); Test C control value (Alternaia brassicicola; [3]): H (more than 50% control value); Test A control value (Magnaporthe grisea; [3]): H (more than 50% control value); Test E control value (Puccinia recondita; [3]): H (more than 50% control value)
CCCCc1ccc(=O)n(CC)c1-c1ccc(F)cc1Cl [compound 208] | H (more than 50% control value) | L (50% or less control value) | L (50% or less control value) | L (50% or less control value) | H (more than 50% control value) | H (more than 50% control value) | H (more than 50% control value) | H (more than 50% control value) |  |  |  |  |  |  |  |  | 
CCn1c(-c2c(F)cccc2F)c(C(C)C)ccc1=O [compound 5] |  |  |  |  |  |  |  |  | H (more than 50% control value) | L (50% or less control value) | L (50% or less control value) | H (more than 50% control value) | H (more than 50% control value) | H (more than 50% control value) | H (more than 50% control value) | H (more than 50% control value) | 
CCn1c(-c2ccc(Cl)cc2F)c(CC(C)C)ccc1=O [compound 157] |  |  |  |  |  |  |  |  | H (more than 50% control value) | H (more than 50% control value) | L (50% or less control value) | L (50% or less control value) | H (more than 50% control value) | H (more than 50% control value) | H (more than 50% control value) | H (more than 50% control value) | 
CCn1c(-c2ccc(Br)cc2F)c(CC(C)C)cc(Br)c1=O [compound 142] |  |  |  |  |  |  |  |  | H (more than 50% control value) | H (more than 50% control value) | L (50% or less control value) | H (more than 50% control value) | H (more than 50% control value) | H (more than 50% control value) | H (more than 50% control value) | H (more than 50% control value) | 
CCn1c(-c2c(F)cc(F)cc2F)c(C(C)(O)CC)cc(Br)c1=O (centres unmarked) [compound 482] |  |  |  |  |  |  |  |  |  |  |  |  |  |  |  |  | Test D control value [1, 3]: H (more than 50% control value); Test G control value (Plasmopara viticola; [4]): H (more than 50% control value); Test F control value (Phytophthora infestans; [3]): L (50% or less control value); Test H control value [2, 5]: H (more than 50% control value); Test B control value (Botrytis cinerea; [3]): H (more than 50% control value); Test C control value (Alternaia brassicicola; [3]): H (more than 50% control value); Test A control value (Magnaporthe grisea; [3]): H (more than 50% control value); Test E control value (Puccinia recondita; [3]): H (more than 50% control value)
CCn1c(-c2c(F)cc(F)cc2F)c(C(C)(OC)C2CCCC2)cc(Cl)c1=O (centres unmarked) [compound 245] | L (50% or less control value) | L (50% or less control value) | L (50% or less control value) | L (50% or less control value) | L (50% or less control value) | H (more than 50% control value) | L (50% or less control value) | L (50% or less control value) |  |  |  |  |  |  |  |  | 
CCn1c(-c2ccc(C)cc2F)c(CC(C)C)cc(Cl)c1=O [compound 146] |  |  |  |  |  |  |  |  | H (more than 50% control value) | H (more than 50% control value) | L (50% or less control value) | L (50% or less control value) | H (more than 50% control value) | H (more than 50% control value) | H (more than 50% control value) | H (more than 50% control value) | 
CCCc1cc(Br)c(=O)n(C)c1-c1ccc(F)cc1C [compound 421] |  |  |  |  |  |  |  |  |  |  |  |  |  |  |  |  | Test D control value [1, 3]: H (more than 50% control value); Test G control value (Plasmopara viticola; [4]): L (50% or less control value); Test F control value (Phytophthora infestans; [3]): L (50% or less control value); Test H control value [2, 5]: H (more than 50% control value); Test B control value (Botrytis cinerea; [3]): H (more than 50% control value); Test C control value (Alternaia brassicicola; [3]): H (more than 50% control value); Test A control value (Magnaporthe grisea; [3]): L (50% or less control value); Test E control value (Puccinia recondita; [3]): H (more than 50% control value)
CCc1ccc(=O)n(CC)c1-c1ccc(OC)cc1C [compound 353] | H (more than 50% control value) | L (50% or less control value) | L (50% or less control value) | L (50% or less control value) | L (50% or less control value) | L (50% or less control value) | L (50% or less control value) | H (more than 50% control value) |  |  |  |  |  |  |  |  | 
CCn1c(-c2c(F)cc(F)cc2F)c(C(C)(C)O)cc(Cl)c1=O [compound 150] |  |  |  |  |  |  |  |  | H (more than 50% control value) | H (more than 50% control value) | L (50% or less control value) | H (more than 50% control value) | H (more than 50% control value) | H (more than 50% control value) | H (more than 50% control value) | H (more than 50% control value) | 
CCn1c(-c2c(F)cc(F)cc2F)c(CN(OC)C(=O)OC)cc(Cl)c1=O [compound 133] |  |  |  |  |  |  |  |  | H (more than 50% control value) | H (more than 50% control value) | L (50% or less control value) | H (more than 50% control value) | H (more than 50% control value) | H (more than 50% control value) | H (more than 50% control value) | H (more than 50% control value) | 
CCCc1cc(Cl)c(=O)n(C)c1-c1ccc(F)cc1Cl [compound 332] | H (more than 50% control value) | L (50% or less control value) | L (50% or less control value) | H (more than 50% control value) | H (more than 50% control value) | H (more than 50% control value) | H (more than 50% control value) | H (more than 50% control value) |  |  |  |  |  |  |  |  | 
CC(C)c1ccc(=O)n(C)c1-c1c(F)cc(F)cc1F [compound 13] |  |  |  |  |  |  |  |  | H (more than 50% control value) | L (50% or less control value) | L (50% or less control value) | L (50% or less control value) | H (more than 50% control value) | L (50% or less control value) | H (more than 50% control value) | L (50% or less control value) | 
CCCc1cc(Cl)c(=O)n(C)c1-c1ccc(F)cc1C [compound 420] |  |  |  |  |  |  |  |  |  |  |  |  |  |  |  |  | Test D control value [1, 3]: H (more than 50% control value); Test G control value (Plasmopara viticola; [4]): L (50% or less control value); Test F control value (Phytophthora infestans; [3]): L (50% or less control value); Test H control value [2, 5]: L (50% or less control value); Test B control value (Botrytis cinerea; [3]): H (more than 50% control value); Test C control value (Alternaia brassicicola; [3]): L (50% or less control value); Test A control value (Magnaporthe grisea; [3]): L (50% or less control value); Test E control value (Puccinia recondita; [3]): H (more than 50% control value)
CCn1c(-c2c(F)cc(F)cc2F)c(C(O)C2CC2)cc(Cl)c1=O (centres unmarked) [compound 258] | H (more than 50% control value) | H (more than 50% control value) | L (50% or less control value) | H (more than 50% control value) | H (more than 50% control value) | H (more than 50% control value) | H (more than 50% control value) | H (more than 50% control value) |  |  |  |  |  |  |  |  | 
